Values quoted from earlier work, collected in patent US20030013099A1, “Genes regulated by DNA methylation in colon tumors” (priority 2001, published 2003).

What was measured:
HT-29 cells [1] = conditions: Aza treatment; inhibition parallels induction of IFN responsive genes; cited from earlier work
HT-29 cells [2] = conditions: cultured HT-29 cells, microarray experiments and other methods; cited from earlier work

Nc1ncn([C@H]2C[C@H](O)[C@@H](CO)O2)c(=O)n1 [Aza, 5-aza-2-deoxycytidine]
growth of HT-29 cells in culture (HT-29 cells [1]): inhibits growth
expression of genes related to interferon (IFN) signaling (HT-29 cells [2]): leads to specific expression of several genes related to interferon (IFN) signaling
